Paper PMC9656735, “Eight Indole Alkaloids from the Roots of Maerua siamensis and Their Nitric Oxide Inhibitory Effects” (Molecules, 2022)
Where two headings read alike, the source gives them in different places.

Key:
[1] = tested on: nitric oxide (NO) production in LPS-induced RAW 264.7 cells; test: Inhibition of nitric oxide production in LPS-induced RAW 264.7 cells (Griess reagent); format: cell-based; conditions: for IC50: Mus musculus; for nitric oxide inhibition activity compared with indomethacin: in words
Description: (§1) The compounds were dissolved in DMSO to prepare their stock solutions at a concentration of 50 mM. Then, they were pipetted to mix in the culture medium to make the maximum tested concentration of 200 µM containing 0.4% DMSO. Then, the 200 µM tested solution was further diluted with a culture medium, giving the concentration series of 200, 100, 50, and 25 μM (2-fold dilution). The working concentrations of the test compounds [25, 50, 100, and 200 μM] were used to treat cells.
(§2) Raw264.7 cells were seeded at a density of 5 × 10^4 cells/well in a 96-well plate. The cells were pre-treated with various concentrations of samples for 24 h. Cells were induced with 100 ng/mL LPS for 24 h. The culture supernatant was collected for NO production analysis, and cells were further examined for their viability.
The NO production was measured using a Griess reagent kit (Invitrogen, Thermo Fisher Scientific, Waltham, MA, USA). Ninety µL of culture media were mixed with 10 µL of Griess reagent and incubated at room temperature for 30 min, and then the NO concentration was measured at 540 nm using the microplate reader. The percentage of NO production was calculated as Equation (1). (1) %NO production = A/B × 100
A: The concentration of the nitric oxide in the cells induced by LPS and with sample pre-treatment [LPS (+), sample (+)].
B: The concentration of nitric oxide in the cells induced by LPS without sample pre-treatment [LPS (+), sample (−)].
The NO inhibitory activity was expressed as half the maximum (IC50) of the inhibitory concentration calculated using GraphPad Prism 9.

[2] = tested on: RAW 264.7 cells; test: Cytotoxicity / cell viability by MTT assay in LPS-induced RAW 264.7 cells; format: cell-based; conditions: for Cytotoxicity: MTT, concentration at which cell viability was lower than 80%, maximum concentration 200 μM
Description: as §1, §2
The cell viability was measured by the MTT assay. An MTT solution (1 mg/mL) was added to each well and incubated for 4 h at 37 °C. Then, the MTT solution was removed, and the formazan production was dissolved with DMSO. The absorbance was measured at 570 nm using a microplate reader (BioTeK, Santa Clara, CA, USA).

[3] = tested on: NO; set-up: method as in PMID 32163787; conditions: read-out: NO inhibitory activity IC50; cited from earlier work
[4] = RAW264.7, pre-treated 24 h, then 100 ng/mL LPS 24 h, Mean ± SD from three independent experiments, tested 25-200 μM, read-out: IC50 of NO Inhibition

| Molecule | IC50 [1, 4] | IC50 ([1]; RAW264.7, above the 200 μM maximum tested concentration, Mean ± SD, read-out: IC50 of NO Inhibition (value in parentheses, above the maximum tested concentration)) | inhibition of nitric oxide production (in words) [1] | nitric oxide inhibition activity compared with indomethacin [1] | Cytotoxicity [2] | cytotoxicity (in words) ([2]; IC50 of NO inhibition could not be determined) | IC50 [3] |
| --- | --- | --- | --- | --- | --- | --- | --- |
| COc1ccc2c(c1)NC(=O)[C@]2(O)CC#N [Compound 1, (+)-(S)-2-(3-hydroxy-6-methoxy-2-oxoindolin-3-yl)acetonitrile] | 186 ± 22.5 µM |  | inhibited nitric oxide production | as strong as indomethacin | >200 µM |  |  |
| COc1ccc2c(CC#N)c([S+](C)[O-])[nH]c2c1 (stereo not drawn) [Compound 2, 2-(6-methoxy-2-(methylsulfinyl)-1H-indol-3-yl)acetonitrile] | 187 ± 23.1 µM |  | inhibited nitric oxide production | as strong as indomethacin | >200 µM |  |  |
| CO/N=C(/Cc1c[nH]c2cc(OC)ccc12)SC [Compound 3, methyl (Z)-N-methoxy-2-(6-methoxy-1H-indol-3-yl)ethanimidothioate] |  |  |  |  | toxicity at 100 μM |  |  |
| CO/N=C(\SC)C(=O)c1c[nH]c2cc(OC)ccc12 [Compound 4, methyl (Z)-N-methoxy-2-(6-methoxy-1H-indol-3-yl)-2-oxoethanimidothioate] | > 200 µM | > 200 µM |  |  | >200 µM |  |  |
| COc1ccc2cc(C3=C(c4c[nH]c5cccc(OC)c45)N=C3SC)[nH]c2c1 [Compound 6, 4-methoxy-3-[3-(6-methoxy-1H-indol-2-yl)-2-(methylthio)azet-4-yl]-1H-indole] |  |  |  |  | toxicity at 100 μM | too cytotoxic |  |
| isatindigoside F |  |  |  |  |  |  | 70.3 ± 6.9 µM |
| isatindigoside G |  |  |  |  |  |  | 67.3 ± 5.5 µM |

The next lines start with results.

| IC50 [1, 4] | IC50 ([1]; RAW264.7, above the 200 μM maximum tested concentration, Mean ± SD, read-out: IC50 of NO Inhibition (value in parentheses, above the maximum tested concentration)) | Molecule | inhibition of nitric oxide production (in words) [1] | nitric oxide inhibition activity compared with indomethacin [1] | Cytotoxicity [2] | cytotoxicity (in words) ([2]; IC50 of NO inhibition could not be determined) | IC50 [3] |
| --- | --- | --- | --- | --- | --- | --- | --- |
| 92.2 ± 8.9 µM |  | CO/N=C(\C=C1\C(=O)Nc2cc(OC)ccc21)SC [Compound 5, methyl (E)-N-methoxy-2-[(E)-6-methoxy-2-oxindolin-3-ylidene]ethanimidothiolate] | inhibited nitric oxide production | stronger than indomethacin | >200 µM |  |  |
| 31.1 ± 1.8 µM |  | COc1ccc2cc(C3=C(c4c[nH]c5cccc(OC)c45)N=C3[S+](C)[O-])[nH]c2c1 (stereo not drawn) [Compound 7, 4-methoxy-3-[3-(6-methoxy-1H-indol-2-yl)-2-(methylsulfinyl)azet-4-yl]-1H-indole] | inhibited nitric oxide production | stronger than indomethacin | toxicity at 100 μM |  |  |
| 56.7 ± 3.8 µM |  | COc1cccc2[nH]c3c(C#N)c4c(cc3c12)[nH]c1cc(O)ccc14 [Compound 8, 9-hydroxy-1-methoxy-5,11-dihydroindolo[3,2-b]carbazole-6-carbonitrile] | inhibited nitric oxide production | stronger than indomethacin | >200 µM |  |  |
| 150 ± 16 µM |  | COc1ccc2c(c1)c(CC(=O)O)c(C)n2C(=O)c1ccc(Cl)cc1 [indomethacin, reference compound] |  |  | >200 µM |  |  |
